Experimental data as given in US20090176817A1, “Method of Treatment of Diarrhea-Predominant Irritable Bowel Syndrome in a Subject” (priority 2005, published 2009).
Where two headings read alike, the source gives them in different places.

Key:
Assay type in all cases: in vivo, human
[1] = test system: diarrhea-predominant IBS subjects; assay: Study S241.3.009: interruption of activities assessment; conditions: for Percentage of Subjects Who Worsened from Baseline: Interruption of Activities: S241.3.009, 2 mg TID, observed value
Excerpt: (§1) Studies S24 1.3.OO6, S24 1.3.0 1 1, and S24 1.3.009 used the following efficacy measurements: • The subjects answered the following three questions with “yes” or “no” using a phone diary at the end of each week: • a) During the last week, did you experience adequate relief of your IBS symptoms, such as abdominal pain, abdominal discomfort, abnormal bowel habits? • b) During the last week, did you experience adequate relief of your abdominal pain and/or discomfort? • c) During the last week, did you experience adequate relief of your abnormal bowel habits? • The subjects rated the following symptoms using the phone diary at the end of each day: • abdominal pain/discomfort (five-point scale); • stool consistency (seven-point Bristol Stool Scale); • stool frequency (number of bowel movements each day); • urgency (five-point scale); • straining (yes or no); • feeling of incomplete defecation (yes or no); • bloating or feeling of abdominal distension (five-point scale). • In Studies S241 A006 and S241.3.009, subjects completed the IBS-QOL Survey at Baseline (Day 1) and at the end of treatment. In Study S24 1.3.0 1 1, subjects completed the IBS-QOL Survey at Baseline (Day 1), at the end of the three-month treatment period, and at the end of rerandomized treatment.
Other secondary efficacy parameters for all three studies included: • Responder rate for the weekly diary questions on adequate relief at each month, where a responder for a month (monthly responder) was defined as a subject who answered the weekly question with “yes” at least twice for that month. The responder rate was the percentage of responders within a treatment group. The all-month responder rate for the weekly diary questions on adequate relief was also evaluated, where an all-month responder was defined as a subject who answered the weekly question with “yes” at least twice for each month. The all-month responder rate was the percentage of all-month responders within a treatment group; • Adequate relief rate for the weekly diary questions was calculated for each subject as the number of weekly assessments with adequate relief (“yes”) divided by the total number of weekly assessments; • Percentage of subjects with adequate relief for the weekly diary questions at each week; • Daily diary questions regarding abdominal pain/discomfort (five-point scale), stool consistency (seven-point scale), stool frequency (number of bowel movements each day), straining (yes or no), urgency (five-point scale), feeling of incomplete evacuation (yes or no), and bloating or feeling of abdominal distention (five-point scale); • QOL data assessed by the IBS-QOL questionnaire; and • Question to determine the interruption of activities.

[2] = test system: diarrhea-predominant IBS subjects; conditions: for Percentage of Subjects Who Worsened from Baseline: Daily Abdominal Pain / Percentage of Subjects Who Worsened from Baseline: Daily Urgency: S241.3.009, observed value
Excerpt: The primary efficacy parameter was the overall response rate for IBS symptoms, based on the weekly question concerning adequate relief of IBS symptoms (abdominal pain/discomfort, abnormal bowel habits) over the 26 weeks period. A responder was a subject who responded “yes” at least 50% of the time during his/her treatment period, with minimum treatment duration of four weeks. The two main secondary efficacy parameters were overall responder rate based on the weekly question on adequate relief of abdominal pain/discomfort and abnormal bowel habits during the 26-week treatment period. The onset of action of cilansetron was also examined using daily diary data (stool frequency, and ratings of urgency and severity) during the initial 8 weeks of trial participation. An additional key secondary efficacy parameter was the number of months (one month equals four weeks) up to six months (24-weeks) that a subject was a responder for IBS symptoms, where a responder was defined as a subject who answered the weekly question with “yes” at least twice for that month. The responder rate for the weekly diary questions on adequate relief at each month and all months, the adequate relief rate, the number of subjects with adequate relief by week, daily diary questions, IBS-QOL scores, and the interruption of activities were also assessed. Safety was evaluated by physical examination, ECG, vital signs, laboratory evaluations, concomitant medications, and AEs.
as §1
Other secondary efficacy parameters for all three studies included: • Responder rate for the weekly diary questions on adequate relief at each month, where a responder for a month (monthly responder) was defined as a subject who answered the weekly question with “yes” at least twice for that month. The responder rate was the percentage of responders within a treatment group. The all-month responder rate for the weekly diary questions on adequate relief was also evaluated, where an all-month responder was defined as a subject who answered the weekly question with “yes” at least twice for each month. […]

IBS patients = assay: Study K.241.5016: colonic visceral perception
Method: The effect of cilansetron on colonic visceral perception was evaluated in a randomized, doubleblind, placebo-controlled, 2-way crossover study in 16 male and female IBS patients (ITT population), aged 28-66 years. Subjects received single IV doses of placebo or cilansetron 16 mg as 30-minute infusions on two consecutive study days, with no washout between the study days. Colonic distension tests were performed just prior to dosing and after completion of the infusion during each treatment. An electronic barostat was used to produce distensions (successive 4 mmHg increases every 5 minutes, up to a sensation of abdominal pain or a maximum of 40 mmHg). The primary efficacy parameter was the mean distension pressure inducing a sensation of abdominal pain. Secondary effect parameters were the mean distension pressure inducing a sensation of abdominal discomfort, and the response rate, defined as the number of patients experiencing no abdominal pain at the maximum pressure of 40 mmHg. The primary and secondary parameters were compared between cilansetron and placebo treatments using an ANOVA.

[3] = 16 mg single IV dose, ANOVA, not significant
[4] = 16 mg single IV dose, postdose minus predose, IBS patients, mean (SD)

## Cc1nccn1C[C@H]1CCc2c(c3cccc4c3n2CCC4)C1=O [Cilansetron, (R)-(−)-4,5,6,8,9,10-hexahydro-10-[(2-methyl-1H-imidazol-1-yl)methyl]-11H-pyrido-[3,2,1-jk]-carbazol-11-one]
[1]; Endpoint
  Subjects “not at all or rarely” bothered by IBS symptoms: 54%
[1]; Month 1
  Subjects worsened from Baseline, interruption of activities: 5%
  Percentage of Subjects Who Worsened from Baseline: Interruption of Activities: 5%
[1]; Month 3
  Percentage of Subjects Who Worsened from Baseline: Interruption of Activities: 3%
[1]; Month 6
  Percentage of Subjects Who Worsened from Baseline: Interruption of Activities: 2%
[2]; 2 mg TID
  Mean number of stools per day at end of treatment: 1.96 stools per day
[2]; Day 2 of treatment
  Stools per day: 2.97 stools per days
[2]; Month 1 to Month 3
  Median rate of pain-free days: 0.13
  Median rate of urgency-free days: 0.05
[2]; Month 4 to Month 6
  Median rate of pain-free days: 0.31
  Median rate of urgency-free days: 0.10
[2]; Weeks 1-2, 2 mg TID
  Percentage of Subjects Who Worsened from Baseline: Daily Abdominal Pain: 13%
  Percentage of Subjects Who Worsened from Baseline: Daily Urgency: 7%
[2]; Weeks 3-4, 2 mg TID
  Percentage of Subjects Who Worsened from Baseline: Daily Abdominal Pain: 8%
  Percentage of Subjects Who Worsened from Baseline: Daily Urgency: 5%
[2]; Weeks 5-6, 2 mg TID
  Percentage of Subjects Who Worsened from Baseline: Daily Abdominal Pain: 8%
  Percentage of Subjects Who Worsened from Baseline: Daily Urgency: 5%
[2]; Weeks 7-8, 2 mg TID
  Percentage of Subjects Who Worsened from Baseline: Daily Abdominal Pain: 7%
  Percentage of Subjects Who Worsened from Baseline: Daily Urgency: 4%
[2]; Weeks 9-10, 2 mg TID
  Percentage of Subjects Who Worsened from Baseline: Daily Abdominal Pain: 4%
  Percentage of Subjects Who Worsened from Baseline: Daily Urgency: 6%
[2]; Weeks 11-12, 2 mg TID
  Percentage of Subjects Who Worsened from Baseline: Daily Abdominal Pain: 7%
  Percentage of Subjects Who Worsened from Baseline: Daily Urgency: 4%
[2]; Weeks 13-26, 2 mg TID
  Percentage of Subjects Who Worsened from Baseline: Daily Abdominal Pain: 6-8%
  Percentage of Subjects Who Worsened from Baseline: Daily Urgency: 5-8%
[2]; Weeks 1-2
  Subjects worsened from Baseline, daily abdominal pain: 13%
  Subjects worsened from Baseline, daily urgency: 7%
[2]; in vivo
  Bloating or abdominal distention score, change from Baseline at end of treatment: −0.75
  Daily abdominal pain/discomfort score, change from Baseline at end of treatment: −0.92
  Daily stool consistency score, change from Baseline at end of treatment: −1.40
  Daily urgency score, change from Baseline at end of treatment: −0.80
  Feeling of incomplete evacuation, change from Baseline at end of treatment: −0.25
  Mean stool consistency score at end of treatment: 4.27
  Mean straining, change from Baseline at end of treatment: 0.06
  Pain-free days at end of treatment: 0.29
  Stools per day, change from Baseline at end of treatment: −1.60
  Urgency-free days at end of treatment: 0.08
[2]; six-month period
  Median rate of pain-free days: 0.19
  Median rate of urgency-free days: 0.07
IBS patients; 16 mg IV
  Responders (no abdominal pain at 40 mmHg): 1 of 12
IBS patients; [3]
  Pressure inducing abdominal pain, Mean Difference to Placebo: −1.33 mmHg
  Pressure inducing abdominal sensation, Mean Difference to Placebo: −0.67 mmHg
IBS patients; [4]
  Pressure inducing abdominal pain, Difference Postdose: 3.67 (4.66) mmHg
  Pressure inducing abdominal sensation, Difference Postdose: 2.67 (3.55) mmHg
